Measured values published in article PMC12746157, “Light-Regulated Agonists Spatiotemporally Activating the Vitamin D Receptor Mitigate Psoriasis-like Inflammation in Mice without Inducing Hypercalcemia” (ACS Central Science, 2025).
Entries after “also recorded” stand apart in the source; their conditions may differ.

Assays:
[1] = Photoisomerization quantum yield (MATLAB regression); type: physicochemical
Experimental: The UV–vis absorbance spectra of all molecules were measured in the dark and after the application of light of different wavelengths ranging from 365 to 770 nm (Figure A and Figures S1–S3). […] Consequently, violet/UV light below 405 nm efficiently promoted photoisomerization, which produced a dramatic decrease in the π-π* band and a significant increase in the n-π* band at around 445 nm (Table ). […] The proportion of molecules at the PSS in trans isomer upon constant illumination with light at 525 nm and cis at 365 nm was in general above 50%, reaching a remarkable >99% for compound 11d (Table and Figures S4 and S5). […] The greater stability of the trans isomer was consistent with previous quantum mechanical and molecular mechanics predictions. Measuring the photoisomerization properties of compound PhotoVDRM allowed us to determine the photoisomerization quantum yields of the compound by solving a differential equation for photoisomerization. We used MATLAB to perform regression and arrive at the following photoisomerization quantum yields: ϕ365 nm (trans) = 0.0427, ϕ365 nm (cis) = 0.0501, ϕ470 nm (trans) = 0.1857, and ϕ470 nm (cis) = 0.2281 (Figure S9). Compound PhotoVDRM was also evaluated in aqueous buffer used for pharmacological experiments (0.5% DMSO) showing a thermal relaxation of 3 h, almost 7 times faster than in pure DMSO (Figure B). […] A deeper photocharacterization of PhotoVDRM allowed us to measure the kinetics of photoconversion upon constant illumination with two wavelengths and three light intensities (Figure D and Figure S10). […] Indeed, with LED devices producing light at intensities as low as 0.05 mW/mm^2 we were able to transform trans to cis in around 15.5 s. This time was reduced to 6 and 2 s when the light intensity was increased to 0.15 and 0.75 mW/mm^2. […] Therefore, we proceeded to test the ability of the chemical library to activate the VDR under different light conditions.

VDR-LBD = target: T1, VDR-LBD (Homo sapiens, UniProt P11473); assay: HDX-MS of VDR-LBD with ligand in the dark and under 365 nm light; type: binding
T1 construct: VDR-LBD protein stock solution was prepared in 20 mM HEPES buffer
T1 sequence (P11473 127-423 limits assumed): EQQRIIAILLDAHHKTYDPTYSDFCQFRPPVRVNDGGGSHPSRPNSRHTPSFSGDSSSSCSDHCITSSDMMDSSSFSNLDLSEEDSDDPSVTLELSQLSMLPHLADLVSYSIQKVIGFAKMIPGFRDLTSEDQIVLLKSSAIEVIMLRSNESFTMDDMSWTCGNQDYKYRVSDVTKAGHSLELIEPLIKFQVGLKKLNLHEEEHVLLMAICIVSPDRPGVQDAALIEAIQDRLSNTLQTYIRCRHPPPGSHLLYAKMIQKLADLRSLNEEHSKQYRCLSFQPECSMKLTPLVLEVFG
Experimental: Although previously used to study the effect of a cyclic azopeptide in its activated cis state, here we studied the target dynamics upon direct application of the light to the sample. To this aim, HDX-MS was applied for the characterization of the binding mode and modulation of receptor dynamics of the racemic compound PhotoVDRM. VDR-LBD was incubated alone (to provide an apo control for each experiment) or with an excess of compound PhotoVDRM and exposed to deuterium labeling for various periods of time, from 10 s to 2 h, in the dark and illuminated with light at 365 nm. […] As an additional control experiment, we also evaluated the HDX-MS of VDR-LBD in the presence and absence of a standard agonist, compound LSN2148936, in the dark and under illumination conditions. […] In order to permit direct comparison, including mathematical manipulation of the data in all these experiments, the observed deuterium incorporation percentages were converted to rate constants (expressed as −log10(k)) using our previously published Bayesian approach.
(Perkin Elmer, now Revvity, Cat.No. 6006290) in duplicate. Immediately, 54 µL of the protein solution were added and the plate was covered and incubated for 30 min at room temperature in the dark. Meanwhile, the plate with the 10X dilutions was illuminated at 365 nm for 3 min in a 96-well DED array plate (LEDA Teleopto), to allow the photoconversion of the molecules to their cis configuration. The illuminated compounds were mixed with the protein solution and incubated as described above for the plate in the dark. After the incubation time, the counts of both, the dark and illuminated plates, were measured in a Tecan Spark 20M Multimode plate reader with defined settings (excitation: 680 nm, emission: 520-620 nm, excitation time: 100ms, integration time: 300 ms). Biotinylated-His6 peptide (PerkinElmer) was used as a quality control reagent for AlphaScreen® assays and to evaluate compound interaction with the method. […] Dose-response curves and EC50 values were calculated with Graphpad software. […]

[2] = test system: IL-23-induced psoriatic-like inflammation; assay: IL-23-induced mouse model of psoriasis (ear thickness); type: in vivo, C57BL/6N mice; conditions: days 2-4, i.p. PhotoVDRM 0.5 mg/kg
Experimental: Each mice was administered interlueukin 23 (IL-23) once a day for a total of 3 days by intradermal injection (i.d.) into one of the mouse ears. Contralateral ear i.d. injected with PBS was used as control. Subsequently, ear thickness was measured daily, by using a digital caliper, as indicative of psoriasis-course progression (Figure A).
(A) Temporal scheme for IL-23-induced mouse model of psoriasis. Animals were treated with IL-23 (i.d.) in the left ear during three consecutive days (days 1, 2 and 3). In addition, a contralateral control was performed consisting of PBS administration in the right ear. At day 2, 3, and 4 animals were previously intraperitoneally (i.p.) administered with vehicle (saline) and drugs (i.e., LSN2148936; 0.005 mg/kg and PhotoVDRM; 0.5 mg/kg). Both ears were irradiated with 420 or 520 nm light at day 2, 3, and 4 during 8 min. […] (C) Inflammatory ear response measurements. Mice ear thickness determination in animals administrated (ip) on days 2, 3, and 4 with vehicle, LSN2148936 or PhotoVDRM treated with 420 or 520 nm light. Each day, ear thickness was measured in millimeters and represented as percentage of ear thickness increase using the first measurement of PBS-administrated ear as control. Data is shown as mean ± SD, n = 5 mice per group. Statistical analysis between PhotoVDRM and vehicle. *P < 0.05 and **P < 0.01 Student’s t test.

Cc1cc(OCC(O)C(C)(C)C)ccc1N=Nc1cccc(-c2ccc(C(=O)O)cc2)c1 (centres unmarked) [Compound 11b]
photoisomerization quantum yield ϕ365 nm (cis) ([1]; 365 nm, cis): 0.0501 | photoisomerization quantum yield ϕ365 nm (trans) ([1]; 365 nm, trans): 0.0427 | photoisomerization quantum yield ϕ470 nm (cis) ([1]; 470 nm, cis): 0.2281 | photoisomerization quantum yield ϕ470 nm (trans) ([1]; 470 nm, trans): 0.1857 | protection to H/D exchange (VDR-LBD; in the dark, vs under light): much lower | protection to H/D exchange (VDR-LBD; under 365 nm light, vs reference agonist LSN2148936): comparable | IL-23-induced ear inflammation (ear thickness) ([2]; 420 nm light 8 min): significant reduction; also recorded: full antipsoriatic activity | IL-23-induced ear inflammation (ear thickness) ([2]; 520 nm light 8 min): only partially reduces
